Data: ChEMBL document CHEMBL1201862, “PubChem BioAssay data set” (2004)
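Step 1: Grow cells in 96-well plates. Step 2: Expose to compound for 48 hours at 5 concentrations. Step 3: Interpolate endpoints linearly; if unreached, use highest concentration. At the GI50, growth is halved.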 Calls of active or inactive are those of the source. Cut-off read from the data, not from the text of the source: active = GI50 up to about 1.1 µM and inactive = higher.

Key:
Assay in all cases: DTP human tumour cell line panel, 48 h
SF-295 = system: SF-295
UACC-62 = system: UACC-62
OVCAR-4 = system: OVCAR-4
ACHN = system: ACHN
SN12C = system: SN12C
HOP-62 = system: HOP-62
EKVX = system: EKVX
M14 = system: M14
786-0 = system: 786-0
SNB-75 = system: SNB-75
COLO 205 = system: COLO 205
NCI-H226 = system: NCI-H226
HCT-116 = system: HCT-116
MDA-MB-231 = system: MDA-MB-231
T47D = system: T47D
OVCAR-3 = system: OVCAR-3
CAKI-1 = system: CAKI-1
MCF7 = system: MCF7
HCC 2998 = system: HCC 2998
OVCAR-8 = system: OVCAR-8
K562 = system: K562
LOX IMVI = system: LOX IMVI
SK-MEL-28 = system: SK-MEL-28
TK-10 = system: TK-10
MDA-MB-435 = system: MDA-MB-435
BT-549 = system: BT-549
SK-OV-3 = system: SK-OV-3
UACC-257 = system: UACC-257
PC-3 = system: PC-3
MOLT-4 = system: MOLT-4
MDA-N = system: MDA-N
KM12 = system: KM12
CCRF-CEM = system: CCRF-CEM
NCI/ADR-RES = system: NCI/ADR-RES
OVCAR-5 = system: OVCAR-5
SF-268 = system: SF-268
U-251 = system: U-251
SR = system: SR
HT-29 = system: HT-29
SW-620 = system: SW-620
SK-MEL-2 = system: SK-MEL-2
NCI-H460 = system: NCI-H460
HCT-15 = system: HCT-15
DU-145 = system: DU-145
NCI-H522 = system: NCI-H522
RXF 393 = system: RXF 393
Hs-578T = system: Hs-578T
RPMI-8226 = system: RPMI-8226
SNB-19 = system: SNB-19
SK-MEL-5 = system: SK-MEL-5
IGROV-1 = system: IGROV-1
UO-31 = system: UO-31
A498 = system: A498
A549 = system: A549
Malme-3M = system: Malme-3M
HOP-92 = system: HOP-92
NCI-H23 = system: NCI-H23
SF-539 = system: SF-539
HL-60 = system: HL-60

## O=C1CCC(=O)N1n1c(Cc2ccccc2)n[nH]c1=O
SF-295
  GI50: > 100 µM (inactive)
UACC-62
  GI50: > 100 µM (inactive)
OVCAR-4
  GI50: > 100 µM (inactive)
ACHN
  GI50: > 100 µM (inactive)
SN12C
  GI50: > 100 µM (inactive)
HOP-62
  GI50: > 100 µM (inactive)
EKVX
  GI50: > 100 µM (inactive)
M14
  GI50: > 100 µM (inactive)
786-0
  GI50: > 100 µM (inactive)
SNB-75
  GI50: 5.26 µM (inactive)
COLO 205
  GI50: > 100 µM (inactive)
NCI-H226
  GI50: > 100 µM (inactive)
HCT-116
  GI50: > 100 µM (inactive)
MDA-MB-231
  GI50: > 100 µM (inactive)
T47D
  GI50: > 100 µM (inactive)
OVCAR-3
  GI50: > 100 µM (inactive)
CAKI-1
  GI50: > 100 µM (inactive)
MCF7
  GI50: > 100 µM (inactive)
HCC 2998
  GI50: > 100 µM (inactive)
OVCAR-8
  GI50: > 100 µM (inactive)
K562
  GI50: > 100 µM (inactive)
LOX IMVI
  GI50: > 100 µM (inactive)
SK-MEL-28
  GI50: > 100 µM (inactive)
TK-10
  GI50: > 100 µM (inactive)
MDA-MB-435
  GI50: > 100 µM (inactive)
BT-549
  GI50: > 100 µM (inactive)
SK-OV-3
  GI50: > 100 µM (inactive)
UACC-257
  GI50: > 100 µM (inactive)
PC-3
  GI50: > 100 µM (inactive)
MOLT-4
  GI50: > 100 µM (inactive)
MDA-N
  GI50: > 100 µM (inactive)
KM12
  GI50: 7.29 µM (inactive)
CCRF-CEM
  GI50: > 100 µM (inactive)
NCI/ADR-RES
  GI50: > 100 µM (inactive)
OVCAR-5
  GI50: > 100 µM (inactive)
SF-268
  GI50: > 100 µM (inactive)
U-251
  GI50: > 100 µM (inactive)
SR
  GI50: > 100 µM (inactive)
HT-29
  GI50: > 100 µM (inactive)
SW-620
  GI50: > 100 µM (inactive)
SK-MEL-2
  GI50: > 100 µM (inactive)
NCI-H460
  GI50: > 100 µM (inactive)
HCT-15
  GI50: > 100 µM
DU-145
  GI50: > 100 µM (inactive)
NCI-H522
  GI50: > 100 µM (inactive)
RXF 393
  GI50: > 100 µM (inactive)
Hs-578T
  GI50: > 100 µM (inactive)
RPMI-8226
  GI50: > 100 µM (inactive)
SNB-19
  GI50: > 100 µM (inactive)
SK-MEL-5
  GI50: > 100 µM (inactive)
IGROV-1
  GI50: > 100 µM (inactive)
UO-31
  GI50: > 100 µM (inactive)
A498
  GI50: > 100 µM (inactive)
A549
  GI50: > 100 µM (inactive)
Malme-3M
  GI50: > 100 µM (inactive)

## Cc1ccc2c3c4c(ccc13)C(C)(C)OC4=C(C(C)C)C2=O
SF-295
  GI50: 88.3 µM (inactive)
UACC-62
  GI50: 50.9 µM (inactive)
OVCAR-4
  GI50: 65.5 µM (inactive)
ACHN
  GI50: 84.5 µM (inactive)
SN12C
  GI50: > 100 µM (inactive)
HOP-62
  GI50: 15.6 µM (inactive)
EKVX
  GI50: 63.5 µM (inactive)
M14
  GI50: 45.1 µM (inactive)
786-0
  GI50: 66.7 µM (inactive)
SNB-75
  GI50: 26.4 µM (inactive)
COLO 205
  GI50: 31.3 µM (inactive)
NCI-H226
  GI50: 5.4 µM (inactive)
HCT-116
  GI50: 53.1 µM (inactive)
HOP-92
  GI50: 19.5 µM (inactive)
MDA-MB-231
  GI50: > 100 µM (inactive)
T47D
  GI50: 53.5 µM (inactive)
OVCAR-3
  GI50: 13.8 µM (inactive)
CAKI-1
  GI50: > 100 µM (inactive)
MCF7
  GI50: 44.7 µM (inactive)
HCC 2998
  GI50: 39.8 µM (inactive)
OVCAR-8
  GI50: 44.7 µM (inactive)
K562
  GI50: 59.3 µM (inactive)
NCI-H23
  GI50: 70.5 µM (inactive)
SK-MEL-28
  GI50: 91.6 µM (inactive)
TK-10
  GI50: 67 µM (inactive)
MDA-MB-435
  GI50: 59.7 µM (inactive)
BT-549
  GI50: 26.5 µM (inactive)
SK-OV-3
  GI50: > 100 µM (inactive)
UACC-257
  GI50: 30.5 µM (inactive)
PC-3
  GI50: 14.5 µM (inactive)
MOLT-4
  GI50: 26.4 µM (inactive)
MDA-N
  GI50: > 100 µM (inactive)
KM12
  GI50: 54.3 µM (inactive)
SF-539
  GI50: > 100 µM (inactive)
CCRF-CEM
  GI50: 48.4 µM (inactive)
NCI/ADR-RES
  GI50: 19.5 µM (inactive)
OVCAR-5
  GI50: > 100 µM (inactive)
SF-268
  GI50: 34.7 µM (inactive)
U-251
  GI50: 79.8 µM (inactive)
HT-29
  GI50: 13.8 µM (inactive)
SW-620
  GI50: > 100 µM (inactive)
SK-MEL-2
  GI50: 17 µM (inactive)
NCI-H460
  GI50: 31.8 µM (inactive)
HCT-15
  GI50: 32.5 µM
DU-145
  GI50: > 100 µM (inactive)
NCI-H522
  GI50: 26.8 µM (inactive)
RXF 393
  GI50: 17.4 µM (inactive)
Hs-578T
  GI50: 8.36 µM (inactive)
RPMI-8226
  GI50: 43.7 µM (inactive)
SNB-19
  GI50: > 100 µM (inactive)
SK-MEL-5
  GI50: 32.2 µM (inactive)
IGROV-1
  GI50: 55.3 µM (inactive)
UO-31
  GI50: > 100 µM (inactive)
HL-60
  GI50: 16.6 µM (inactive)
A498
  GI50: > 100 µM (inactive)
A549
  GI50: 55.5 µM (inactive)
Malme-3M
  GI50: 39.3 µM (inactive)
